Data taken from the supplement of paper PMC10883282.
± gives the standard deviation of the averaged measurements.

System: RD
Experiment: relative viability vs DMSO control (72 h) (fraction); higher = more viable cells
Procedure, shortened: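 Sarcoma cell lines in 384-well plates, seeded to reach 80–90% confluence, were given compound after 24 h and kept 72 h at 37 °C, 5% CO2, with 0.1% DMSO vehicle and a 5 µM positive control. Relative viability came from ATPLite as percent growth, averaged over up to triplicate wells. On the rescaled values, 1 equals full and 0 equals none.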

C=CC(=O)Nc1cccc(Oc2nc(Nc3ccc(N4CCN(C)CC4)cc3)nc3ccsc23)c1 [Olmutinib]
relative viability (0.00017 µM): 1.02 ± 0.051
relative viability (0.00051 µM): 1.04 ± 0.045
relative viability (0.00152 µM): 1.03 ± 0.046
relative viability (0.00457 µM): 1.04 ± 0.032
relative viability (0.01372 µM): 1.03 ± 0.068
relative viability (0.04115 µM): 1.03 ± 0.056
relative viability (0.1235 µM): 1.04 ± 0.051
relative viability (0.3704 µM): 1.07 ± 0.058
relative viability (1.111 µM): 1.01 ± 0.051
relative viability (3.333 µM): 0.892 ± 0.08
relative viability (10 µM): 0.174 ± 0.025

COc1cc2c(Oc3ccc4[nH]c(C)cc4c3F)ncnc2cc1OCCCN1CCCC1 [Cediranib]
relative viability (0.00017 µM): 1.09 ± 0.043
relative viability (0.00051 µM): 1.1 ± 0.058
relative viability (0.00152 µM): 1.09 ± 0.015
relative viability (0.00457 µM): 1.15 ± 0.057
relative viability (0.01372 µM): 1.09 ± 0.076
relative viability (0.04115 µM): 1.13 ± 0.046
relative viability (0.1235 µM): 1.1 ± 0.03
relative viability (0.3704 µM): 1.04 ± 0.06
relative viability (1.111 µM): 1 ± 0.077
relative viability (3.333 µM): 1.03 ± 0.13
relative viability (10 µM): 0.962 ± 0.078

Cc1cnc(Nc2ccc(OCCN3CCCC3)cc2)nc1Nc1cccc(S(=O)(=O)NC(C)(C)C)c1 [Fedratinib]
relative viability (0.00017 µM): 1.07 ± 0.031
relative viability (0.00051 µM): 1.09 ± 0.03
relative viability (0.00152 µM): 1.12 ± 0.042
relative viability (0.00457 µM): 1.13 ± 0.048
relative viability (0.01372 µM): 1.12 ± 0.064
relative viability (0.04115 µM): 1.14 ± 0.058
relative viability (0.1235 µM): 1.09 ± 0.09
relative viability (0.3704 µM): 0.785 ± 0.066
relative viability (1.111 µM): 0.445 ± 0.025
relative viability (3.333 µM): 0.0678 ± 0.011
relative viability (10 µM): 0.00303 ± 0.0004

CCCS(=O)(=O)Nc1ccc(F)c(C(=O)c2c[nH]c3ncc(-c4ccc(Cl)cc4)cc23)c1F [Vemurafenib]
relative viability (0.00017 µM): 1.14 ± 0.071
relative viability (0.00051 µM): 1.12 ± 0.08
relative viability (0.00152 µM): 1.14 ± 0.073
relative viability (0.00457 µM): 1.13 ± 0.073
relative viability (0.01372 µM): 1.12 ± 0.059
relative viability (0.04115 µM): 1.13 ± 0.061
relative viability (0.1235 µM): 1.11 ± 0.053
relative viability (0.3704 µM): 1.12 ± 0.053
relative viability (1.111 µM): 1.14 ± 0.07
relative viability (3.333 µM): 1.11 ± 0.036
relative viability (10 µM): 0.785 ± 0.079

Cn1cnc2c(F)c(Nc3ccc(Br)cc3F)c(C(=O)NOCCO)cc21 [Binimetinib]
relative viability (0.00017 µM): 1.01 ± 0.049
relative viability (0.00051 µM): 1 ± 0.04
relative viability (0.00152 µM): 0.978 ± 0.037
relative viability (0.00457 µM): 0.89 ± 0.054
relative viability (0.01372 µM): 0.798 ± 0.05
relative viability (0.04115 µM): 0.746 ± 0.028
relative viability (0.1235 µM): 0.677 ± 0.016
relative viability (0.3704 µM): 0.627 ± 0.036
relative viability (1.111 µM): 0.588 ± 0.015
relative viability (3.333 µM): 0.534 ± 0.035
relative viability (10 µM): 0.507 ± 0.012

COc1c(OCCCN2CCOCC2)ccc2c1N=C(NC(=O)c1cnc(N)nc1)N1CCN=C21 [Copanlisib]
relative viability (0.00017 µM): 1.07 ± 0.038
relative viability (0.00051 µM): 1.06 ± 0.032
relative viability (0.00152 µM): 1.07 ± 0.082
relative viability (0.00457 µM): 0.77 ± 0.053
relative viability (0.01372 µM): 0.741 ± 0.098
relative viability (0.04115 µM): 0.61 ± 0.01
relative viability (0.1235 µM): 0.438 ± 0.019
relative viability (0.3704 µM): 0.328 ± 0.011
relative viability (1.111 µM): 0.268 ± 0.013
relative viability (3.333 µM): 0.225 ± 0.014
relative viability (10 µM): 0.184 ± 0.015

COc1cc2nccc(Oc3ccc(NC(=O)Nc4cc(C)on4)c(Cl)c3)c2cc1OC [Tivozanib]
relative viability (0.00017 µM): 1.12 ± 0.07
relative viability (0.00051 µM): 1.12 ± 0.085
relative viability (0.00152 µM): 1.13 ± 0.009
relative viability (0.00457 µM): 1.13 ± 0.068
relative viability (0.01372 µM): 1.135 ± 0.011
relative viability (0.04115 µM): 1.14 ± 0.016
relative viability (0.1235 µM): 1.14 ± 0.05
relative viability (0.3704 µM): 1.18 ± 0.052
relative viability (1.111 µM): 1.169 ± 0.0077
relative viability (3.333 µM): 1.17 ± 0.018
relative viability (10 µM): 0.814 ± 0.019

CC[C@H](Nc1ncnc2[nH]cnc12)c1nc2cccc(F)c2c(=O)n1-c1ccccc1 [Idelalisib]
relative viability (0.00017 µM): 1.08 ± 0.039
relative viability (0.00051 µM): 1.11 ± 0.035
relative viability (0.00152 µM): 1.12 ± 0.06
relative viability (0.00457 µM): 1.13 ± 0.042
relative viability (0.01372 µM): 1.13 ± 0.036
relative viability (0.04115 µM): 1.13 ± 0.039
relative viability (0.1235 µM): 1.1 ± 0.076
relative viability (0.3704 µM): 1.12 ± 0.062
relative viability (1.111 µM): 1.1 ± 0.066
relative viability (3.333 µM): 1.04 ± 0.06
relative viability (10 µM): 0.927 ± 0.029

Cc1cc(C)c(/C=C2\C(=O)Nc3ccccc32)[nH]1 [Semaxanib]
relative viability (0.00017 µM): 1.07 ± 0.053
relative viability (0.00051 µM): 1.05 ± 0.042
relative viability (0.00152 µM): 1.06 ± 0.035
relative viability (0.00457 µM): 1.08 ± 0.016
relative viability (0.01372 µM): 1.08 ± 0.028
relative viability (0.04115 µM): 1.088 ± 0.0067
relative viability (0.1235 µM): 1.09 ± 0.037
relative viability (0.3704 µM): 1.09 ± 0.02
relative viability (1.111 µM): 1.08 ± 0.023
relative viability (3.333 µM): 1.06 ± 0.046
relative viability (10 µM): 1 ± 0.041
